“Also recorded” adds a separate entry of the source.

The subject of series [1] is medium spiny neurons (MSN). In words: DARPP-32 staining: MSN cell area and striatal volume in N171-82Q mice. The format is in vivo, mouse. An excerpt:
(§1) All animal protocols were approved by the University of Iowa Animal Care and Use Committee. N171-82Q mice were obtained from Jackson Laboratories (Bar Harbor, Me.) and maintained on B6C3F1/J background. Mice were genotyped using primers specific for the mutant human HTT transgene, and hemizygous and age-matched wild-type littermates were used for the indicated experiments. Mice were housed in a controlled temperature environment on a 12-hour light/dark cycle. Food and water were provided ad libitum. For pharmacological studies, RAD001 was obtained from LC Laboratories, diluted to 2 mg/ml in 2% DMSO, and stored at −20° C. […]
Floating, 40-μm coronal brain sections were processed for immunohistochemical staining of medium spiny neurons or mHTT aggregates using biotin-labeled antibody. […] S6 phosphorylation was detected with a phospho-S6 antibody (S235/236, 1:300, Cell Signaling). […] The areas of DARPP-32 positive MSN were quantified by Olympus DP2-BSW software (version 2.1). The average MSN areas of ipsilateral injected sides were compared to contralateral control sides and expressed as means+SEM. EM48 positive inclusions were counted by an experimenter blinded to treatment groups.
Striatal volume was calculated using point counting methods with the Cavalieri estimator of volume (Michel and Cruz-Orive, 1988). […] A minimum of 200 points were counted over 5 sections. […]

In series [2] the target is T1, mTORC1 (Mus musculus, UniProt P26883+Q9JLN9).
T1 construct: Biochemical assessment of mTORC1 activity (pS6) in striatal lysates from N171-82Q mice; from tissue; host or cells: striatum of N171-82Q transgenic mice (in vivo)
Put plainly: mTORC1 activity (pS6) in striatum of N171-82Q mice given RAD001. It counts as in vivo. To be noted: RAD001 for 2 weeks vs vehicle, striata harvested 24 hours after the last dose.
Description: as §1, with “C. Freshly thawed vehicle and RAD001 (30 μmol/kg) were given 3 times per week (Monday, Wednesday, and Friday) for two weeks by gavage as described previously (Fox et al., 2010).” for “C.”
Floating, 40-μm coronal brain sections were processed for immunohistochemical staining of medium spiny neurons or mHTT aggregates using biotin-labeled antibody. […] S6 phosphorylation was detected with a phospho-S6 antibody (S235/236, 1:300, Cell Signaling). […] The areas of DARPP-32 positive MSN were quantified by Olympus DP2-BSW software (version 2.1). The average MSN areas of ipsilateral injected sides were compared to contralateral control sides and expressed as means+SEM. EM48 positive inclusions were counted by an experimenter blinded to treatment groups. […]

Series [3] has as its system Q7 and Q111 striatal cells. Put plainly: RT-qPCR of HMGCR and HMGCS1 in Q7 and Q111 striatal cells treated with Torin1. To be noted: 250 nM Torin1, 24 hours, both mutant and normal cell lines. The format is cell-based. On the procedure:
(§2) Mutant (Q111) and WT (Q7) striatal cells (Trettel et al., 2000) with full-length HTT were kindly provided by Dr. Marcy MacDonald. The Q7 and Q111 cells were grown at 37° C. in Dulbecco's modified Eagle's medium (DMEM; Sigma Chemical Co, St. Louis, Mo.) supplemented with 10% fetal bovine serum, 1% non-essential amino acids, 2 mM L-glutamine, and 400 μg/ml G418 (Geneticin; Invitrogen, Carlsbad, Calif.).
RNA was isolated from striatal punches using 1 ml of TRIzol. Random-primed first-strand complementary DNA (cDNA) synthesis was performed using 500 ng total RNA (High Capacity cDNA Reverse Transcription Kit; Applied Biosystems, Foster City, Calif.) per manufacturer's protocol. Real-time PCR was performed on a sequence detection system (Prism 7900HT, Applied Biosystems) using SYBR green PCR mix (Invitrogen) or TaqMan 2× Universal Master Mix (Applied Biosystems). The following Taqman primer/probe sets were obtained from Applied Biosystem: Rhes (Mm04209172_m1 and Hs04188091_mH), PGC1-α (Mm01208835_m1), and HMGCS1 (Mm01304569_m1), and HDAC4 (Mm01299557_m1). The primer sequences for SYBR green RT PCR are available upon request. Relative gene expression was determined using the AACT method, normalizing to β-actin.

For series [4], the system named is Q7 and Q111 striatal cells. Put plainly: Western blot of Q7 and Q111 striatal cells treated with Torin1. The format is cell-based. Particulars: 250 nM Torin1, 24 hours. On the procedure:
as §2
Mouse striata were harvested and lysed in RIPA buffer containing 50 mM Tris (pH 8.0), 150 mM NaCl, 1% […] detergent, 0.1% SDS detergent, 0.5% deoxycholic acid, and 1 mM β-mercaptoethanol with protease inhibitors (Complete Mini, Roche Applied Science, Mannheim, Germany) and phosphatase inhibitors (PhosSTOP Phosphatase Inhibitor Cocktail, Roche Applied Science, Mannheim, Germany). Tissues were homogenized on ice and spun at 14,000 g for 20 min. Supernatant were used for analysis. Protein concentration was determined by BCA assay (Pierce, Rockford, Ill.) and 20-30 μg of protein was reduced and separated by SDS-PAGE on 4%-10% acrylamide gels and transferred to 0.2 μm Immobilon PVDF membranes (Millipore, Billerica, Mass.). The primary antibodies used were as follows: DARPP-32 (1:1000, Cell Signaling), β-actin (Sigma-Aldrich, 1:5000), S6 (1:1000, Cell Signaling), phospho-S6 (S235/236, 1:1000, Cell Signaling), 4EBP1 (1:1000, Cell Signaling), phospho-4E-BP1 (T37/46, 1:1000, Cell Signaling), mTOR (1:1000, Cell Signaling), Rictor (1:1000, Cell Signaling), Raptor (1:1000, Cell Signaling), CREB (1:1000, Cell Signaling), TORC1 (1:1000, Cell Signaling), PGC1-α (1:1000, abeam), LC3 (1:1000, Novus Biologicals), and Beclin1 (1:1000, Cell Signaling). Secondary antibodies used were HRP-goat anti-mouse IgG and HRP-goat anti-rabbit IgG (Cell Signaling). Blots were developed using ECL Plus Western Blotting Detection System (GE Healthcare, Pittsburgh, Pa.), and then exposed to film. Protein quantification was performed using NIH ImageJ software or the VersaDoc™ Imaging System (Biorad) and Quantity One R analysis software. Band densities were normalized to housekeeping (β-actin) bands from the same samples and lanes.
For orientation: Immunoblotting shows a protein as a band on a membrane.

In series [5] the test system is R6/2 HD mice. Particulars: R6/2 HD mice (Fox et al., 2010); cited from earlier work.

Take `CO[C@H]1C[C@@H]2CC[C@@H](C)[C@@](O)(O2)C(=O)C(=O)N2CCCC[C@H]2C(=O)O[C@H]([C@H](C)C[C@@H]2CC[C@@H](OCCO)[C@H](OC)C2)CC(=O)[C@H](C)/C=C(\C)[C@@H](O)[C@@H](OC)C(=O)[C@H](C)C[C@H](C)/C=C/C=C/C=C/1C` [RAD001]: the MSN atrophy entry in series [1] (2 weeks of RAD001 treatment in the absence of caRheb, N171-82Q mice) is listed as “mild but significant exacerbation”. The “morphological effects of caRheb (MSN cell size, striatal volume)” value in series [1] (RAD001 30 μmol/kg by gavage 3 times per week for two weeks in AAV.caRheb injected N171-82Q mice) was “reversed”. The “mTORC1 activity (S6 phosphorylation, pS6)” value in series [2] is on record as “attenuated; also recorded: inhibits mTORC1 activity”.

Consider `CCC(=O)N1CCN(c2ccc(-n3c(=O)ccc4cnc5ccc(-c6cnc7ccccc7c6)cc5c43)cc2C(F)(F)F)CC1` [Torin1], for which, in series [3], the HMGCR expression entry was “reduced expression” and the HMGCS1 expression result was “reduced expression”. In addition, in series [4], the CREB entry is listed as “repressed”, the DARPP-32 expression result is recorded as “reduced”, the PGC1-α entry is reported as “repressed” and the p-4E-BP1 levels entry is “reduced”. In series [4], the pS6 levels result is “reduced” and the “transducer of regulated CREB 1 (TORC1)” value is recorded as “repressed”.

As to `CO[C@H]1C[C@@H]2CC[C@@H](C)[C@@](O)(O2)C(=O)C(=O)N2CCCC[C@H]2C(=O)O[C@H]([C@H](C)C[C@@H]2CC[C@@H](O)[C@H](OC)C2)CC(=O)[C@H](C)/C=C(\C)[C@@H](O)[C@@H](OC)C(=O)[C@H](C)C[C@H](C)/C=C/C=C/C=C/1C` [rapamycin], in series [5], the brain atrophy entry is listed as “enhanced brain atrophy” and the weight loss entry is listed as “accelerated weight loss”.

These data come from patent publication US11612641B2, “Method for treating Huntingtons's disease” (UNIVERSITY OF IOWA RESEARCH FOUNDATION, priority 2014, dated 2023).
